Results from ChEMBL document CHEMBL1201862, “PubChem BioAssay data set” (2004).
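Five concentrations, 48 hours, 96-well plates. GI50 is the concentration that inhibits growth by half.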 Calls of active or inactive are those of the source. Cut-off read from the data, not from the text of the source: active = GI50 up to about 1.1 µM and inactive = higher.

Experiments:
Assay in all cases: NCI-60 cell line screen, 48 h
MDA-MB-435 = tested on: MDA-MB-435
CAKI-1 = tested on: CAKI-1
SW-620 = tested on: SW-620
A549 = tested on: A549
OVCAR-8 = tested on: OVCAR-8
T47D = tested on: T47D
UACC-257 = tested on: UACC-257
OVCAR-3 = tested on: OVCAR-3
SR = tested on: SR
NCI-H460 = tested on: NCI-H460
CCRF-CEM = tested on: CCRF-CEM
SK-MEL-2 = tested on: SK-MEL-2
SF-295 = tested on: SF-295
Malme-3M = tested on: Malme-3M
K562 = tested on: K562
BT-549 = tested on: BT-549
ACHN = tested on: ACHN
TK-10 = tested on: TK-10
MOLT-4 = tested on: MOLT-4
HOP-18 = tested on: HOP-18

SMILES | GI50 (MDA-MB-435) | GI50 (CAKI-1) | GI50 (SW-620) | GI50 (A549) | GI50 (OVCAR-8) | GI50 (T47D) | GI50 (UACC-257) | GI50 (OVCAR-3) | GI50 (SR) | GI50 (NCI-H460) | GI50 (CCRF-CEM) | GI50 (SK-MEL-2) | GI50 (SF-295) | GI50 (Malme-3M) | GI50 (K562) | GI50 (BT-549) | GI50 (ACHN) | GI50 (TK-10) | GI50 (MOLT-4) | GI50 (HOP-18)
O=c1oc2ccc([N+](=O)[O-])cc2c(Nc2ccc3c(c2)S(=O)(=O)c2ccccc2O3)c1[N+](=O)[O-] | > 100 µM (inactive) | > 100 µM (inactive) | 97.7 µM (inactive) | > 100 µM (inactive) | > 100 µM (inactive) | > 100 µM (inactive) | > 100 µM (inactive) | 69.3 µM (inactive) | 32.4 µM (inactive) | 98.4 µM (inactive) | 38.3 µM (inactive) | 52.2 µM (inactive) | 60.4 µM (inactive) | > 100 µM (inactive) | 33 µM (inactive) | 73.1 µM (inactive) | > 100 µM (inactive) | > 100 µM (inactive) | 40.1 µM (inactive) | 
FC(F)(Sc1nc2ccccc2[nH]1)c1nc2ccccc2o1 | > 100 µM (inactive) | > 100 µM (inactive) | > 100 µM (inactive) | > 100 µM (inactive) | 43.1 µM (inactive) | > 100 µM (inactive) | > 100 µM (inactive) | > 100 µM (inactive) | > 100 µM (inactive) | > 100 µM (inactive) | > 100 µM (inactive) | > 100 µM (inactive) | > 100 µM (inactive) | 24.4 µM (inactive) | > 100 µM (inactive) | 75.5 µM (inactive) | > 100 µM (inactive) | > 100 µM (inactive) | > 100 µM (inactive) | 
Sc1ncc(-c2cncc(-c3cnc(S)nc3)n2)cn1 | > 100 µM (inactive) | > 100 µM (inactive) | > 100 µM (inactive) | > 100 µM (inactive) | > 100 µM (inactive) | > 100 µM (inactive) | > 100 µM (inactive) | > 100 µM (inactive) | 85.1 µM (inactive) | > 100 µM (inactive) | > 100 µM (inactive) | > 100 µM (inactive) | > 100 µM (inactive) | > 100 µM (inactive) | > 100 µM (inactive) | > 100 µM (inactive) | > 100 µM (inactive) | > 100 µM (inactive) | > 100 µM (inactive) | 
C/C(CCn1[nH]c(=O)ccc1=O)=N\NC(=O)C(N)=O |  | > 100 µM (inactive) | > 100 µM (inactive) | > 100 µM (inactive) | > 100 µM (inactive) |  | > 100 µM (inactive) | > 100 µM (inactive) |  | > 100 µM (inactive) |  | > 100 µM (inactive) | > 100 µM (inactive) | > 100 µM (inactive) | > 100 µM (inactive) |  | > 100 µM (inactive) | > 100 µM (inactive) |  | > 100 µM (inactive)
Cc1c(N2C(=O)C(Cl)C2/C=C/c2ccccc2)c(=O)n(-c2ccccc2)n1C (stereo not drawn) | 12.1 µM (inactive) | 53 µM (inactive) | 24.2 µM (inactive) | 26.4 µM (inactive) | 22.1 µM (inactive) | 19.8 µM (inactive) | 4.68 µM (inactive) | 20.8 µM (inactive) | 17.5 µM (inactive) | 26.7 µM (inactive) | 16.1 µM (inactive) | 17.3 µM (inactive) | 22.1 µM (inactive) | 5.75 µM (inactive) | 6.58 µM (inactive) | 33.4 µM (inactive) | 20.3 µM (inactive) | 14.3 µM (inactive) | 13.4 µM (inactive) | 
Cc1ccc(S(=O)(=O)N2CCCC2C(=O)O[C@H]2CC[C@H]3CC=C[C@H]32)cc1 (stereo partly drawn) | 80.2 µM (inactive) | > 100 µM (inactive) | 31.1 µM (inactive) | 19.4 µM (inactive) | 31.8 µM (inactive) | 38.3 µM (inactive) | 23.8 µM (inactive) | > 100 µM (inactive) | 24.9 µM (inactive) | 27 µM (inactive) | 13.8 µM (inactive) | > 10 µM (inactive) | 23.7 µM (inactive) | 47.1 µM (inactive) | 14.9 µM (inactive) | 47.4 µM (inactive) | 18.7 µM (inactive) | > 10 µM (inactive) | 7.89 µM (inactive) | 
CCOC(=O)C[C@@]12CCCNC1(C)CCc1ccccc12 (stereo partly drawn) |  |  | > 100 µM (inactive) | > 100 µM (inactive) | > 100 µM (inactive) |  | > 100 µM (inactive) | > 100 µM (inactive) |  | > 100 µM (inactive) | > 100 µM (inactive) | > 100 µM (inactive) | 52.5 µM (inactive) | > 100 µM (inactive) | > 100 µM (inactive) |  | > 100 µM (inactive) | > 100 µM (inactive) | > 100 µM (inactive) | 63.2 µM (inactive)
C[C@]12CC[C@H](O)C[C@H]1CC[C@@H]1[C@@H]2CC[C@]2(C)[C@@H](C3=CC(=O)OC3)[C@@H](O)C[C@]12O [GITOXIGENIN] | 3.01 µM (inactive) | 1.58 µM (inactive) | 3.18 µM (inactive) | 0.445 µM (active) | 2.93 µM (inactive) | 3.65 µM (inactive) | 2.2 µM (inactive) | 0.457 µM (active) | 0.977 µM (active) | 0.499 µM (active) | 0.51 µM (active) | 2.17 µM (inactive) | 1.41 µM (inactive) | 1.77 µM (inactive) | 3.38 µM (inactive) | 1.89 µM (inactive) | 0.451 µM (active) | 0.625 µM (active) | 0.408 µM (active) | 
